This is an account of results in ChEMBL document CHEMBL1130733, “Synthesis and structure-activity relationships of pyridine-modified analogs of 3-[2-((S)-pyrrolidinyl)methoxy]pyridine, A-84543, a potent nicotinic acetylcholine receptor agonist” (Bioorg Med Chem Lett, 1998).

Experiment [1] addresses Neuronal acetylcholine receptor; alpha4/beta2 (Rattus norvegicus, UniProt P09483+P12390). In words: Binding affinity towards nAChR (alpha4-beta2) by the displacement of [3H](-)-cytisine in whole rat brain membranes. Type of experiment: cell membranes.
Experiment [2] deals with T1, Neuronal acetylcholine receptor; alpha4/beta2 (Homo sapiens, UniProt P17787+P43681). As to the kind of experiment: Stimulation of cation efflux in human nAChR alpha4-beta2 expressing K177 cells. Type of experiment: cell-based.
T1 sequence (P17787 whole entry): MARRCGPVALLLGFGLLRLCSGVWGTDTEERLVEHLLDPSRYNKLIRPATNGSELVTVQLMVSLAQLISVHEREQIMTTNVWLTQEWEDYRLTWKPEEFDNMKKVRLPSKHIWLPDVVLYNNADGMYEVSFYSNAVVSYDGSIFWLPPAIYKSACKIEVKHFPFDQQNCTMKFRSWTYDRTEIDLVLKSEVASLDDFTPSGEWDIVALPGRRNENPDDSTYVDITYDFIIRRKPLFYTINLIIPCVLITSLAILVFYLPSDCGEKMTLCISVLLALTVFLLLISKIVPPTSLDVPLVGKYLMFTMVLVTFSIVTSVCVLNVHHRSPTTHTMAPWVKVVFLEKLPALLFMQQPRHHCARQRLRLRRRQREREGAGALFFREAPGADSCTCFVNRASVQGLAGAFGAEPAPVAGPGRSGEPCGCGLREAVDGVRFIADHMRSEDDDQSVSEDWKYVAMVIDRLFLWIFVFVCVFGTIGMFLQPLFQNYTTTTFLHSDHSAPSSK
T1 sequence (P43681 whole entry): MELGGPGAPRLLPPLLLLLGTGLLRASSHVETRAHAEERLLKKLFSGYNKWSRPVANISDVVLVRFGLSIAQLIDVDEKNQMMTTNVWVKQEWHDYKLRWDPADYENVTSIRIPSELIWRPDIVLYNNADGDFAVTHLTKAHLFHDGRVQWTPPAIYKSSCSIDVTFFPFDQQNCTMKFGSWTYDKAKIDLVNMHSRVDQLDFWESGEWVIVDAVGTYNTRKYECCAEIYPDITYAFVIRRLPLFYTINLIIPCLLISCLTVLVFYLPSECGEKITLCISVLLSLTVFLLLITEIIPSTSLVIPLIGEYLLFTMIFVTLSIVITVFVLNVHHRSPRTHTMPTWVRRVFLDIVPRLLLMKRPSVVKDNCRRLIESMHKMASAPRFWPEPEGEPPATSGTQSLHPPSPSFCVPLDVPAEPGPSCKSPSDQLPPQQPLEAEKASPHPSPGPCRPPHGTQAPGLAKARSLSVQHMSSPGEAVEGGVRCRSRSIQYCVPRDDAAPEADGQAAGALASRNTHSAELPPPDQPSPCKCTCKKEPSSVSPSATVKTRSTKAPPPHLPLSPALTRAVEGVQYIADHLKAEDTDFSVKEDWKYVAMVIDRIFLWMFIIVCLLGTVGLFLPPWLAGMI
Experiment [3] has as its target T1, Neuronal acetylcholine receptor; alpha4/beta2. In words: Maximal efficacy relative to 100 uM nicotine in human nAChR alpha4-beta2 expressing K177 cells. Type of experiment: cell-based.
Experiment [4] has as its target Nicotinic acetylcholine receptor alpha3/betaX. In words: Stimulation of cation efflux in Nicotinic acetylcholine receptor alpha3-betaX subtype expressing IMR-32 cells. Type of experiment: functional, cell-based, Homo sapiens.
For experiment [5], the target named is Nicotinic acetylcholine receptor alpha3/betaX (Homo sapiens) (UniProt P11230+P17787+P30926+P32297+Q05901). In words: Maximal efficacy relative to 100 uM nicotine in Nicotinic acetylcholine receptor alpha3-betaX subtype expressing IMR-32 cells. The experiment is classed as cell-based.
For experiment [6], the target named is T1, Neuronal acetylcholine receptor; alpha4/beta2. The following applies: IMR-32.
Description: Maximal efficacy in nAChR subtype human alpha3betaX, expressed in IMR-32 cells
For experiment [7] the target is unchanged. The following applies: K177.
Description: Maximal efficacy in human nAChR alpha4-beta2 expressing K177 cells
For experiment [8] the target is unchanged. In words: Inhibition of cation efflux in human nAChR alpha4-beta2 expressing K177 cells. The experiment is classed as cell-based.

Sequence of Neuronal acetylcholine receptor; alpha4/beta2 (Rattus norvegicus, UniProt P09483+P12390) (P09483 whole entry): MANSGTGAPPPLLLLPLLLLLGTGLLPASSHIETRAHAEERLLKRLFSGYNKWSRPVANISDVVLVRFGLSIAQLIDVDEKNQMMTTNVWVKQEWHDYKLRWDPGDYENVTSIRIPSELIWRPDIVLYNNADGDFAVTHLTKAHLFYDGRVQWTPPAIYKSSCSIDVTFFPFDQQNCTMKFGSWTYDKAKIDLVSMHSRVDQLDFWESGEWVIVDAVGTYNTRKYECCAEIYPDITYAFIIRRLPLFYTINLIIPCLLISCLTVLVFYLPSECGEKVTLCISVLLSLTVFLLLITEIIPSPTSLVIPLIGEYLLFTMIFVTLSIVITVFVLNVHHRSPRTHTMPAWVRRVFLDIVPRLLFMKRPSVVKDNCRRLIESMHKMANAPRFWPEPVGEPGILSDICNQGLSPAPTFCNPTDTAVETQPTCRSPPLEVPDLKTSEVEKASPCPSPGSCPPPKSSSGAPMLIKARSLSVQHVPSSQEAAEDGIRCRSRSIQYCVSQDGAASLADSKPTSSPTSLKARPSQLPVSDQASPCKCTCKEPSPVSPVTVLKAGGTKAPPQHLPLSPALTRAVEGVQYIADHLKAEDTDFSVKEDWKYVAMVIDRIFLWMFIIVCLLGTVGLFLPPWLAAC
Sequence of Neuronal acetylcholine receptor; alpha4/beta2 (Rattus norvegicus, UniProt P09483+P12390) (P12390 whole entry): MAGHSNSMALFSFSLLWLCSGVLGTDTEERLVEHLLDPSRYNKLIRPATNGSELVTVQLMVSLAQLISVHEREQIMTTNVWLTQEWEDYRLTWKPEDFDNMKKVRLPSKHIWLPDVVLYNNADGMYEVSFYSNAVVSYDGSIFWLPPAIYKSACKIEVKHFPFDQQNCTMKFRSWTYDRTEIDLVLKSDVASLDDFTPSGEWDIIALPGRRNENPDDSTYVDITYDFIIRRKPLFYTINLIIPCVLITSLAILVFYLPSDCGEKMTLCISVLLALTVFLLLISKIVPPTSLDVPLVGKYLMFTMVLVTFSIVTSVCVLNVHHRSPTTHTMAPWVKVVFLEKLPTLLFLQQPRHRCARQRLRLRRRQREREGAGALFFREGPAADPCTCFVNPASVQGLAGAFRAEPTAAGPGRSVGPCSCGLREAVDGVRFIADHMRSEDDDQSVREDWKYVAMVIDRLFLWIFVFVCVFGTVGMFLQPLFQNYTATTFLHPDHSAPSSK

In turn, `CN1CCC[C@H]1COc1cncc(Cl)c1` registered a Ki in experiment [1] of 0.0006 µM.

As to `Cc1ncccc1OC[C@@H]1CCCN1C`, the figures for the 50% effective concentration (EC50) in experiment [2] and in experiment [4] were 4.8 µM and 18.2 µM, respectively. The figures for the Max in experiment [3] and in experiment [5] were 26.7% and 27.7%, respectively. In experiment [1], this molecule came in with an inhibition constant (Ki) of 0.0229 µM.

With `CN1CCC[C@H]1COc1cncc([N+](=O)[O-])c1`, in experiment [1], affinity was put at a Ki of 0.00465 µM.

In the case of `CN1CCC[C@H]1COc1cccnc1[N+](=O)[O-]`, in experiment [1], affinity was put at a Ki of 9 µM.

Molecule `CN1CCC[C@H]1COc1cncc(Br)c1` yielded an EC50 in experiment [2] of 5.95 µM. Further, the Max in experiment [3] amounted to 41.8%. Also, in experiment [1], the Ki was 0.00027 µM.

For the molecule `Cc1ccc(OC[C@@H]2CCCN2C)cn1`, the values for the EC50 in experiment [2] and in experiment [4] were 2.2 µM and 13.4 µM, respectively. Besides, in experiment [3], the Max is 54.4%. The molecule also returned an inhibitory constant (Ki) in experiment [1] of 0.00126 µM.

Take `CN1CCC[C@H]1c1cccnc1`: the Max in experiment [6] and in experiment [7] was 100% each time.

`CC(C)Cc1cncc(OC[C@@H]2CCCN2C)c1` displayed a Ki in experiment [1] of 0.00021 µM.

With `CN1CCC[C@H]1COc1cccnc1I`, in experiment [1], the affinity, expressed as Ki, was 0.606 µM.

For the molecule `CCc1cncc(OC[C@@H]2CCCN2C)c1`, the 50% effective concentration (EC50) in experiment [2] was 1 µM; in experiment [4], above 1000 µM. In experiment [3], this molecule showed a Max of 33.7%. This molecule also displayed an inhibitory constant (Ki) in experiment [1] of 0.00032 µM.

Take `CN1CCC[C@H]1COc1ccc(CO)nc1`: in experiment [1], the Ki was 0.0974 µM.

Take `CN1CCC[C@H]1COc1cncc(N)c1`: the Ki in experiment [1] turned out to be 0.00063 µM.

With `CCCCCCc1cncc(OC[C@@H]2CCCN2C)c1`, affinity in experiment [1] was put at a Ki of 0.00032 µM.

`CCCCc1cncc(OC[C@@H]2CCCN2C)c1`: the EC50 in experiment [2] and in experiment [4] was above 1000 µM each time. This molecule also had a Max in experiment [3] of 14%. In experiment [1], the affinity, expressed as Ki, was 0.00016 µM. Besides, the IC50 in experiment [8] turned out to be 0.64 µM.

As for `CN1CCC[C@H]1COc1ccc(F)nc1`, in experiment [1], affinity was put at a Ki of 0.00256 µM.

For `CN1CCC[C@H]1COc1ccc(Cl)nc1`, the concentration giving a half-maximal response (EC50) in experiment [2] came to 1.4 µM; in experiment [4], 27.1 µM. Moreover, in experiment [3], the Max worked out at 108%. Moreover, the Ki in experiment [1] was found to be 0.00064 µM.

In experiment [1], `CN1CCC[C@H]1COc1cncc(F)c1` had a Ki of 0.00069 µM.

`CN1CCC[C@H]1COc1cnccc1Br`: the EC50 in experiment [2] and in experiment [4] was above 1000 µM in each case. Besides, in experiment [3], the Max stood at 14.1%. Further, the inhibition constant Ki in experiment [1] is 0.028 µM.

Turning to `CCCc1cncc(OC[C@@H]2CCCN2C)c1`, the concentration giving a half-maximal response (EC50) in experiment [2] and in experiment [4] was above 1000 µM each time. Further, the Max in experiment [3] turned out to be 13%. In experiment [1], the inhibitory constant (Ki) worked out at 0.00012 µM. In experiment [8], this molecule had an IC50 of 2.4 µM.

`CCNc1cncc(OC[C@@H]2CCCN2C)c1` had a Ki in experiment [1] of 0.0037 µM.

For the molecule `CN1CCC[C@H]1COc1cc(Br)c[n+]([O-])c1`, the Ki in experiment [1] worked out at 0.0348 µM.

As to `CN1CCC[C@H]1COc1ccc(Br)nc1`, the values for the EC50 in experiment [2] and in experiment [4] were 2.6 µM and above 1000 µM, respectively. Further, the Max in experiment [3] amounted to 42.5%. The molecule further gave a Ki in experiment [1] of 0.00191 µM.

`CCN(CC)C(=O)c1ccncc1OC[C@@H]1CCCN1C`: in experiment [1], the Ki was found to be 2.83 µM.

On to `Cc1ccncc1OC[C@@H]1CCCN1C`, for which the figures for the EC50 in experiment [2] and in experiment [4] were 2.1 µM and above 1000 µM, respectively. The molecule also gave a Max in experiment [3] of 73.9%. In experiment [1], this molecule had a Ki of 0.00412 µM.

Consider `CN1CCC[C@H]1COc1cccnc1Br`, for which the EC50 in experiment [2] and in experiment [4] was above 1000 µM in each case. In addition, in experiment [3], the Max turned out to be 12.3%. In experiment [1], this molecule displayed a Ki of 0.451 µM.

`CN1CCC[C@H]1COc1cncc(C(F)(F)F)c1` had an inhibitory constant (Ki) in experiment [1] of 0.00183 µM.

In the case of `Cc1cncc(OC[C@@H]2CCCN2C)c1`, the concentration giving a half-maximal response (EC50) in experiment [2] was 2.3 µM; in experiment [4], 2.9 µM. In experiment [3], this molecule had a Max of 77%. The molecule also returned an inhibitory constant (Ki) in experiment [1] of 0.00048 µM.

Take `CN1CCC[C@H]1COc1cccnc1`: the Max worked out at 100% in experiment [3] and 73.2% in experiment [5]. Moreover, affinity in experiment [1] was put at a Ki of 0.00015 µM. This molecule also displayed an EC50 in experiment [4] of 19.4 µM.

In the case of `CSc1ncccc1OC[C@@H]1CCCN1C`, the inhibition constant Ki in experiment [1] stood at 0.559 µM.
